Among the test systems are PC-3; SNB-19; SF-268; HL-60; Malme-3M; SK-MEL-5; NCI-H226; RXF 393; MDA-MB-231; IGROV-1; OVCAR-4; SK-MEL-2; BT-549; HCC 2998; SW-620; NCI-H460; OVCAR-8; Hs-578T; MDA-MB-435; A498.
What all share (assay): NCI-60 cell line screen, 48 h

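Five compound concentrations were applied to cells in 96-well plates for 48 hours; endpoints were derived by simple linear interpolation of the resulting dose-response curve. At the GI50, growth is halved.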 Activity calls are given as the source filed them. Rule as the data show it: active = GI50 up to about 1.1 µM and inactive = higher. Positions of bridges follow the written chain, without caps; N, C: chain ends. Residues, ends and D or L forms follow the SMILES beside them.

`SC1=NC2=C(CSC/C2=C\c2ccccc2)C(c2ccccc2)N1` (configuration not stated): the GI50 with PC-3 is 34.4 µM (inactive); with SNB-19 it was 39.6 µM (inactive); in the assay on SF-268, 64.6 µM (inactive); in the assay on HL-60, 15.2 µM (inactive); in the assay on Malme-3M it was 28.6 µM (inactive); with SK-MEL-5, 12.1 µM (inactive). The GI50 in the assay on NCI-H226 was 56.4 µM (inactive); in the assay with RXF 393, 27.9 µM (inactive); in the assay with MDA-MB-231, 45.1 µM (inactive); with IGROV-1 it was > 100 µM (inactive); in the assay with OVCAR-4, > 100 µM (inactive); in the assay with SK-MEL-2, 49.3 µM (inactive). Moreover, the GI50 in the assay with BT-549 was 26.2 µM (inactive); in the assay with HCC 2998, 42.5 µM (inactive); in the assay with SW-620, 48.3 µM (inactive); in the assay with NCI-H460, 33 µM (inactive); in the assay on OVCAR-8 it was 42.2 µM (inactive).

For the compound `O/N=C(\CC(O)(C(F)(F)F)C(F)(F)F)c1cccc(Cl)c1`, the GI50 was 29.9 µM (inactive) in the assay on PC-3; 23.5 µM (inactive) with HL-60; 33.7 µM (inactive) with Malme-3M; 16.6 µM (inactive) in the assay with SK-MEL-5; 20.8 µM (inactive) in the assay with NCI-H226; 15.6 µM (inactive) in the assay on RXF 393. The GI50 in the assay with Hs-578T is 21.5 µM (inactive); in the assay on MDA-MB-231, 22.5 µM (inactive); with IGROV-1, 27.1 µM (inactive); in the assay on OVCAR-4, 34.5 µM (inactive); in the assay with SK-MEL-2 it was 22.7 µM (inactive); in the assay with MDA-MB-435, 25.8 µM (inactive). The GI50 was 60 µM (inactive) with HCC 2998; 37.8 µM (inactive) with SW-620; 34 µM (inactive) in the assay on A498; 43.3 µM (inactive) in the assay with NCI-H460; 37.4 µM (inactive) in the assay on OVCAR-8.

Consider `COc1cccc(/C=C2\S/C(=N/Nc3nc(C)c(C)s3)NC2=O)c1O`, for which the GI50 with SNB-19 was > 100 µM (inactive); with SF-268 it was > 100 µM (inactive); in the assay with HL-60, 56.1 µM (inactive); with SK-MEL-5, 50.2 µM (inactive); in the assay on NCI-H226, > 100 µM (inactive); in the assay on RXF 393 it was 79.4 µM (inactive). Further, the GI50 in the assay on MDA-MB-231 is > 100 µM (inactive); with IGROV-1, 34.3 µM (inactive); with OVCAR-4, > 100 µM (inactive); in the assay with SK-MEL-2, > 100 µM (inactive); with MDA-MB-435, > 100 µM (inactive); with BT-549, > 100 µM (inactive). Moreover, the GI50 is 61.5 µM (inactive) in the assay with HCC 2998; > 100 µM (inactive) with SW-620; > 100 µM (inactive) with A498; > 100 µM (inactive) in the assay with NCI-H460; 36.6 µM (inactive) in the assay on OVCAR-8.

Consider `Cc1cccc(NC(=S)Nc2ccccc2Cl)n1`, for which the GI50 is > 100 µM (inactive) in the assay with PC-3; 25.1 µM (inactive) with SNB-19; 28.7 µM (inactive) in the assay with SF-268; > 100 µM (inactive) in the assay with HL-60; 38 µM (inactive) in the assay on Malme-3M; 27.9 µM (inactive) with SK-MEL-5. Further, the GI50 in the assay on NCI-H226 was 39 µM (inactive); with RXF 393, 20.7 µM (inactive); in the assay on Hs-578T, 38.4 µM (inactive); in the assay with IGROV-1 it was 30.1 µM (inactive); in the assay on OVCAR-4, 24.4 µM (inactive); in the assay on SK-MEL-2 it was > 100 µM (inactive). The GI50 in the assay on MDA-MB-435 is > 100 µM (inactive); in the assay on BT-549, 59.7 µM (inactive); in the assay with SW-620, > 100 µM (inactive); in the assay on A498, 24.9 µM (inactive); in the assay on NCI-H460, 59.3 µM (inactive); in the assay with OVCAR-8 it was 29.6 µM (inactive).

As for `NC(=O)CCC(NC(=O)c1cccc2c(=O)c3ccccc3[nH]c12)C(=O)O` (configuration not stated), the GI50 in the assay with PC-3, with SNB-19, in the assay with SF-268, in the assay on HL-60, in the assay on Malme-3M and in the assay on SK-MEL-5 was > 100 µM (inactive) each time. The GI50 with NCI-H226, with Hs-578T, with MDA-MB-231, with IGROV-1, in the assay with OVCAR-4 and with SK-MEL-2 was > 100 µM (inactive) throughout. Further, the GI50 with MDA-MB-435, in the assay on SW-620, in the assay on A498 and in the assay on OVCAR-8 was > 100 µM (inactive) each time.

Take `COC(=O)C1CCC(=O)NCCCCC(NC(=O)C(N)CC(=O)O)C(=O)N1` (stereo not drawn) (H-Asp-Lys-Glu-OMe; lactam 2-3; configuration not given here): the GI50 in the assay with PC-3 was > 100 µM (inactive); in the assay with SNB-19, > 100 µM (inactive); with SF-268, > 100 µM (inactive); in the assay with HL-60, 29.4 µM (inactive); in the assay on Malme-3M it was > 100 µM (inactive); in the assay with SK-MEL-5 it was > 100 µM (inactive). The GI50 in the assay on NCI-H226, in the assay with RXF 393, with Hs-578T, in the assay with MDA-MB-231, with IGROV-1 and with OVCAR-4 was > 100 µM (inactive) each time. Further, the GI50 was > 100 µM (inactive) with SK-MEL-2; > 100 µM (inactive) with MDA-MB-435; > 100 µM (inactive) in the assay on BT-549; > 100 µM (inactive) in the assay on HCC 2998; > 100 µM (inactive) in the assay on SW-620; 9.68 µM (inactive) in the assay on NCI-H460. Further, in the assay on OVCAR-8, the GI50 was > 100 µM (inactive).

Regarding `O=P1(NCCCl)OCCC(OO)N1CCCl` (configuration not stated), the GI50 in the assay with PC-3 is 68.5 µM (inactive); in the assay on SNB-19, > 52 µM (inactive); with SF-268, 35.2 µM (inactive); in the assay on HL-60, 6.82 µM (inactive); in the assay on Malme-3M it was 17.3 µM (inactive); with SK-MEL-5 it was 93.5 µM (inactive). For the same compound, the GI50 in the assay on NCI-H226 was > 100 µM (inactive); in the assay with RXF 393 it was 17.8 µM (inactive); with Hs-578T, 50.4 µM (inactive); with MDA-MB-231, > 100 µM (inactive); in the assay with IGROV-1, > 100 µM (inactive); in the assay with OVCAR-4, 20.5 µM (inactive). In addition, the GI50 in the assay with SK-MEL-2 was 37.7 µM (inactive); with MDA-MB-435 it was 56.1 µM (inactive); with BT-549, 39.5 µM (inactive); in the assay on HCC 2998, > 100 µM (inactive); in the assay on SW-620, 15.7 µM (inactive); with NCI-H460, 37.8 µM (inactive). Also, the GI50 in the assay with OVCAR-8 is 46.1 µM (inactive).

For `COc1ccc(OC(=O)CC2Cc3cc(OC)c(OC)c(OC)c3-c3ccc(SC)c(=O)cc32)cc1` (configuration not stated), the GI50 with SNB-19 is 0.12 µM (active); in the assay on SF-268, 2.74 µM (inactive); with HL-60 it was 0.0893 µM (active); in the assay with Malme-3M, 0.383 µM (active); in the assay on SK-MEL-5, 0.378 µM (active); with NCI-H226 it was 0.216 µM (active). The GI50 with RXF 393 is 0.115 µM (active); in the assay on IGROV-1 it was 1.85 µM (inactive); in the assay on OVCAR-4, 11.7 µM (inactive); in the assay on SK-MEL-2 it was 2.14 µM (inactive); with HCC 2998, 0.0568 µM (active); in the assay with SW-620, 0.0783 µM (active). Further, the GI50 was 0.0332 µM (active) in the assay on A498, 0.245 µM (active) in the assay with NCI-H460 and 0.27 µM (active) with OVCAR-8.

Regarding `CSC(SC)=C1Sc2cccc(Cl)c2S1`, the GI50 in the assay on SNB-19 is 85.1 µM (inactive); with SF-268 it was > 100 µM (inactive); with HL-60 it was 18.3 µM (inactive); in the assay on Malme-3M, > 100 µM (inactive); with SK-MEL-5 it was 33.3 µM (inactive); in the assay on NCI-H226, > 100 µM (inactive). For the same compound, the GI50 with RXF 393 is 43.7 µM (inactive); in the assay on IGROV-1, > 100 µM (inactive); in the assay on OVCAR-4, 68.4 µM (inactive); in the assay on SK-MEL-2, 17.9 µM (inactive); with HCC 2998, 15.8 µM (inactive); with SW-620, 39 µM (inactive). Moreover, the GI50 is 76.4 µM (inactive) in the assay with A498, > 100 µM (inactive) in the assay with NCI-H460 and 92.5 µM (inactive) in the assay with OVCAR-8.

For `C[C@H]1C(=O)O[C@@H]1[C@H]1COC(C)(C)O1`, the GI50 in the assay with PC-3 was > 100 µM (inactive); with SNB-19, > 100 µM (inactive); in the assay with SF-268 it was > 100 µM (inactive); with HL-60, 0.769 µM (active); with NCI-H226 it was > 100 µM (inactive); with RXF 393, > 100 µM (inactive). Moreover, the GI50 in the assay with MDA-MB-231, with OVCAR-4, in the assay with SK-MEL-2, in the assay on MDA-MB-435, with BT-549 and in the assay with HCC 2998 was > 100 µM (inactive) throughout. For the same compound, the GI50 with SW-620, in the assay on A498, in the assay with NCI-H460 and in the assay with OVCAR-8 was > 100 µM (inactive) in each case.

Consider `CCOC(=S)SSSC(=S)OCC`, for which the GI50 is > 100 µM (inactive) in the assay with PC-3; 65 µM (inactive) in the assay on SNB-19; 71.3 µM (inactive) with SF-268; 76.6 µM (inactive) with HL-60; 16.3 µM (inactive) with Malme-3M; 36.1 µM (inactive) in the assay with SK-MEL-5. In addition, the GI50 in the assay on NCI-H226 is 82.6 µM (inactive); in the assay on RXF 393, 47.9 µM (inactive); in the assay with Hs-578T, > 100 µM (inactive); in the assay with MDA-MB-231, 33.1 µM (inactive); in the assay with MDA-MB-435, 54.3 µM (inactive); in the assay with HCC 2998 it was 68.4 µM (inactive). Also, the GI50 with SW-620 is 32.5 µM (inactive); in the assay on A498 it was > 100 µM (inactive); in the assay with NCI-H460 it was 30.7 µM (inactive); with OVCAR-8 it was 13.8 µM (inactive).

Take `O=C(CNc1ccccc1C(=O)O)Nn1cnc2ccc(S(=O)(=O)Nc3ccccc3C(=O)O)cc2c1=O`: the GI50 with PC-3, in the assay on SNB-19, in the assay with SF-268, in the assay with HL-60, in the assay on Malme-3M and with NCI-H226 was > 100 µM (inactive) throughout. Besides, the GI50 with Hs-578T, with MDA-MB-231, in the assay on IGROV-1, in the assay with OVCAR-4, in the assay on SK-MEL-2 and with MDA-MB-435 was > 100 µM (inactive) throughout. Also, the GI50 in the assay on BT-549, in the assay with HCC 2998, in the assay on SW-620, in the assay with NCI-H460 and in the assay on OVCAR-8 was > 100 µM (inactive) in each case.

(Values after ChEMBL document CHEMBL1201862, “PubChem BioAssay data set” (2004).)
